Experimental data as given in patent US20140093457A1, “Compositions, methods and kits for remineralization and inhibition of dental caries in teeth” (President and Fellows of Harvard College, priority 2010, published 2014).
“Also recorded” adds a separate entry of the source.

How the values were obtained:
[1] = Detection probes on interproximal models of extracted human teeth; details: for degree of detection: early stage caries lesion, optical observation; for emission wavelength (nm) / excitation/absorbance wavelength (nm): probe bound to interproximal enamel caries; for optical observation of early stage caries lesion with bound probe (photograph): tooth preparation illuminated and photographed
Protocol: Interproximal models of extracted human teeth (molars and premolars) were fabricated using silicon impression materials. Interproximal enamel caries at about […] depth and at about 1.5 mm depth were prepared by using areas of interproximal contact regions. The dental preparations having synthetic caries were assessed by radiographic films (bitewings) and a microscope.
A cotton ball was saturated with the detection probe, and placed in contact with the region of the interproximal enamel caries. The bound probe was observed by illuminating over a varying set of different wavelengths of excitation light, followed by detecting light of fluorescent emissions. Furthermore, absorbance of the illuminating wavelengths was detected as appropriate for each probe.
Each tooth preparation having interproximal enamel caries and bound probe was illuminated and photographed.

[2] = Intensity and duration of fluorescence of probe dilutions bound to caries; details: for fluorescent intensity compared to IR820 (ICG): dilutions 1:10 and 1:100 of 1 mg/mL stock, deep and shallow lesions
Protocol: Probes were tested for appropriate concentration, kinetics of binding and retention. Intensity of the illumination light, and the size of the illumination light beam were varied, and data were recorded for each probe. […] The concentration of each probe was varied to determine an optimum concentration for binding during a time period suitable for dental use. Durations of contacting were also tested, for example about 10 seconds, about 20 seconds, about 40 seconds, or about 60 seconds. Binding of the probes to the surface of a tooth having different occlusal cavity conditions were also determined, e.g., plaque, gingival, calculus.
See FIG. 10A and FIG. 10B, and FIG. 11A-FIG. 11D.

[3] = RFU comparison of solutions to release OsteoSense 750 from HA
Protocol: Variables included conditions of pH, temperature, and presence of 1% calcium chloride.
Three conditions were tested: incubation for 15 minutes at 37° C. after vortexing; adjusting pH to 6.5 at 23° C. after vortexing; and addition of 1% calcium chloride to each solution and incubation at room temperature after vortexing.

[4] = 1% solution with calcium chloride (1%), room temperature
[5] = 1% solution, 15 minutes at 37° C.
[6] = 1% solution, pH 6.5, room temperature
[7] = 5% solution with calcium chloride (1%), room temperature
[8] = 5% solution, 15 minutes at 37° C.
[9] = 5% solution, pH 6.5, room temperature
[10] = 10% solution with calcium chloride (1%), room temperature
[11] = 10% solution, 15 minutes at 37° C.
[12] = 10% solution, pH 6.5, room temperature
[13] = 20% solution, 15 minutes at 37° C.
[14] = 20% solution with calcium chloride (1%), room temperature
[15] = 20% solution, pH 6.5, room temperature

emission wavelength (nm) [1]	excitation/absorbance wavelength (nm) [1]	Compound	degree of detection [1]	optical observation of early stage caries lesion with bound probe (photograph) [1]	% released of total OsteoSense [3, 4]	% released of total reference value [3, 4]	Raw RFU value [3, 4]	% released of total OsteoSense [3, 5]	% released of total reference value [3, 5]	Raw RFU value [3, 5]	% released of total OsteoSense [3, 6]	% released of total reference value [3, 6]	Raw RFU value [3, 6]	% released of total OsteoSense [3, 7]	% released of total reference value [3, 7]	Raw RFU value [3, 7]	% released of total OsteoSense [3, 8]	% released of total reference value [3, 8]	Raw RFU value [3, 8]	% released of total OsteoSense [3, 9]	other results
820-870 nm	750-800 nm	CC1(C)C(/C=C/C=C/C=C/C=C2\N(CCCCS(=O)(=O)[O-])c3ccc4ccccc4c3C2(C)C)=[N+](CCCCS(=O)(=O)[O-])c2ccc3ccccc3c21.[Na+] [CardioGreen (ICG)]	Good																		fluorescent intensity compared to IR820 (ICG) [2]: greater fluorescent intensity at each concentration and lesion depth compared to IR820 (ICG)
630 nm	480 nm	COc1cccc2c1C(=O)c1c(O)c3c(c(O)c1C2=O)C[C@@](O)(C(=O)CO)C[C@@H]3O[C@H]1C[C@H](N)[C@H](O)[C@H](C)O1 [Doxorubicin]	Good	Fluorescence of an early stage caries lesion was observed																	
845 nm	745 nm	CC1(C)C(=CC=C2CCCC(C=CC3=[N+](CCCCS(=O)(=O)[O-])c4ccc5ccccc5c4C3(C)C)=C2Cl)N(CCCCS(=O)(=O)[O-])c2ccc3ccccc3c21.[Na+] [IR820 (ICG)]	Good																		
835 nm	800 nm	CC1(C)C(/C=C/C=C/C=C/C=C2\N(CCCCS(=O)(=O)O)c3ccc4ccccc4c3C2(C)C)=[N+](CCCCS(=O)(=O)[O-])c2ccc3ccccc3c21 [Indocyanine Green]	Weak																		
700 nm	600 nm	C1=Cc2cc3ccc(cc4nc(cc5ccc(cc1n2)[nH]5)C=C4)[nH]3 [Porphyrin]	Good	Fluorescence of an early stage caries lesion was observed																	
		O=P(O)(O)CP(=O)(O)O [methylene phosphoric acid (MDP), methylene phosphoric acid]			1.45%	1.54%	0.54 RFU	2.49%	2.11%	0.93 RFU	3.59%	2.50%	1.35 RFU	23.89%	32.07%	8.96 RFU	34.33%	30.09%	12.88 RFU	35.61%	% released of total reference value [3, 9]: 27.41%; Raw RFU value [3, 9]: 13.35 RFU; % released of total OsteoSense [3, 10]: 34.23%; % released of total reference value [3, 10]: 37.57%; Raw RFU value [3, 10]: 12.83 RFU; % released of total OsteoSense [3, 11]: 56.56%; % released of total reference value [3, 11]: 55.84%; Raw RFU value [3, 11]: 21.21 RFU; % released of total OsteoSense [3, 12]: 59.77%; % released of total reference value [3, 12]: 41.32%; Raw RFU value [3, 12]: 22.41 RFU; % released of total OsteoSense [3, 13]: −0.13%; Raw RFU value [3, 13]: −0.05 RFU; relative efficacy in removing OsteoSense 750 from HA ([3]; compared with the other agents): remove more OsteoSense 750 from HA than sodium phosphate monobasic or sodium phosphate dibasic at each concentration; also recorded: generally most effective for removing OsteoSense 750
		O=P([O-])([O-])O.[Na+].[Na+] [sodium phosphate dibasic (D), sodium phosphate dibasic]			0.01%	0.02%	0.00 RFU	2.97%	2.30%	1.11 RFU	1.81%	2.08%	0.68 RFU	4.67%	4.11%	1.75 RFU	14.21%	13.12%	5.33 RFU	14.64%	% released of total reference value [3, 9]: 14.63%; Raw RFU value [3, 9]: 5.49 RFU; % released of total OsteoSense [3, 10]: 4.90%; % released of total reference value [3, 10]: 5.28%; Raw RFU value [3, 10]: 1.84 RFU; % released of total OsteoSense [3, 11]: 27.90%; % released of total reference value [3, 11]: 31.69%; Raw RFU value [3, 11]: 10.46 RFU; % released of total OsteoSense [3, 12]: 25.75%; % released of total reference value [3, 12]: 21.10%; Raw RFU value [3, 12]: 9.66 RFU; % released of total OsteoSense [3, 14]: 14.02%; % released of total reference value [3, 14]: 29.08%; Raw RFU value [3, 14]: 5.26 RFU; % released of total OsteoSense [3, 13]: 35.48%; % released of total reference value [3, 13]: 27.01%; Raw RFU value [3, 13]: 13.30 RFU; % released of total OsteoSense [3, 15]: 56.19%; % released of total reference value [3, 15]: 55.57%; Raw RFU value [3, 15]: 21.07 RFU
		O=P([O-])(O)O.[Na+] [sodium phosphate monobasic (M), sodium phosphate monobasic]			0.60%	2.51%	0.22 RFU	3.10%	3.65%	1.16 RFU	6.36%	9.73%	2.38 RFU	5.34%	11.39%	2.00 RFU	10.41%	13.11%	3.90 RFU	23.87%	% released of total reference value [3, 9]: 31.74%; Raw RFU value [3, 9]: 8.95 RFU; % released of total OsteoSense [3, 10]: 10.27%; % released of total reference value [3, 10]: 20.25%; Raw RFU value [3, 10]: 3.85 RFU; % released of total OsteoSense [3, 11]: 23.92%; % released of total reference value [3, 11]: 32.36%; Raw RFU value [3, 11]: 8.97 RFU; % released of total OsteoSense [3, 12]: 32.44%; % released of total reference value [3, 12]: 45.17%; Raw RFU value [3, 12]: 12.16 RFU; % released of total OsteoSense [3, 14]: 20.04%; % released of total reference value [3, 14]: 39.19%; Raw RFU value [3, 14]: 7.51 RFU; % released of total OsteoSense [3, 13]: 27.67%; % released of total reference value [3, 13]: 50.11%; Raw RFU value [3, 13]: 10.37 RFU; % released of total OsteoSense [3, 15]: 33.90%; % released of total reference value [3, 15]: 51.43%; Raw RFU value [3, 15]: 12.71 RFU
760-800 nm	700-770 nm	cyanine dye 7 [Cy7]																			retained fluorescence intensity compared to CardioGreen (ICG) diluted 1:10 ([2]; diluted 1:10, deep and shallow lesions): much greater intensity in both deep and shallow lesions; fluorescent intensity compared to IR820 (ICG) [2]: greater fluorescent intensity at each concentration and lesion depth compared to IR820 (ICG)

Compound	emission wavelength (nm) [1]	excitation/absorbance wavelength (nm) [1]	degree of detection [1]	optical observation of early stage caries lesion with bound probe (photograph) [1]	% released of total OsteoSense [3, 4]	% released of total reference value [3, 4]	Raw RFU value [3, 4]	% released of total OsteoSense [3, 5]	% released of total reference value [3, 5]	Raw RFU value [3, 5]	% released of total OsteoSense [3, 6]	% released of total reference value [3, 6]	Raw RFU value [3, 6]	% released of total OsteoSense [3, 7]	% released of total reference value [3, 7]	Raw RFU value [3, 7]	% released of total OsteoSense [3, 8]	% released of total reference value [3, 8]	Raw RFU value [3, 8]	% released of total OsteoSense [3, 9]	other results
C=Cc1c(C)c2cc3nc(c4c5[n-]c(cc6nc(cc1[n-]2)C(C)=C6CC)c(C)c5C(=O)[C@@H]4C(=O)OC)[C@@H](CCC(=O)OC/C=C(\C)CCC[C@H](C)CCC[C@H](C)CCCC(C)C)[C@@H]3C.[Mg+2] [Chlorophyll A]	670-900 nm	614 nm	Good	Fluorescence of an early stage caries lesion was observed																	
